{"source": "patent US20140166543A1", "about": "“SYSTEM AND PROCESS FOR RECOVERING BITUMEN FROM OIL SANDS” (Shell Oil Company, priority 2012, published 2014)", "assay": "Viscosity of crude blended with dimethyl sulfide (rheometer)", "type": "physicochemical", "description": "The quality of dimethyl sulfide as an oil recovery agent based on the crude oil viscosity lowering properties of dimethyl sulfide was evalulated. Three crude oils having widely disparate viscosity characteristics—an African Waxy crude, a Middle Eastern asphaltic crude, and a Canadian asphaltenic crude—were blended with dimethyl sulfide. A control sample of each crude was prepared containing no dimethyl sulfide, and samples of each crude were prepared and blended with dimethyl sulfide to prepare crude samples containing increasing concentrations of dimethyl sulfide. Each sample of each of the crudes was heated to 60° C. to dissolve any waxes therein and to permit weighing of a homogeneous liquid, weighed, allowed to cool overnight, then blended with a selected quantity of dimethyl sulfide. The samples of the crude/dimethyl sulfide blend were then heated to 60° C. and mixed to ensure homogeneous blending of the dimethyl sulfide in the samples. Absolute (dynamic) viscosity measurements of each of the samples were taken using rheometer and closed cup sensor assembly. Viscosity measurements of each of the samples of the West African waxy crude and the Middle Eastern asphaltic crude were taken at 20° C., 40° C., 60° C., 80° C., and then again at 20° C. after cooling from 80° C., where the second measurement at 20° C. is taken to measure the viscosity without the presence of waxes since wax formation occurs slowly enough to permit viscosity measurement at 20° C. without the presence of wax. Viscosity measurements of each of the samples of the Canadian asphaltenic crude were taken at 5° C., 10° C., 20° C., 40° C., 60° C., 80° C., The measured viscosities for each of the crudes are shown in Tables 3, 4, and 5 below."}
{"smiles": "CSC", "note": "[Dimethyl Sulfide, dimethyl sulfide]", "values": [{"measurement": "Viscosity of Topped Canadian asphaltenic Crude", "setting": "DMS 1.43 wt. %, 20° C.", "result": 212525, "unit": "mPa s"}, {"measurement": "Viscosity of Topped Canadian asphaltenic Crude", "setting": "DMS 1.43 wt. %, 40° C.", "result": 14721, "unit": "mPa s"}, {"measurement": "Viscosity of Topped Canadian asphaltenic Crude", "setting": "DMS 1.43 wt. %, 60° C.", "result": 2209, "unit": "mPa s"}, {"measurement": "Viscosity of Topped Canadian asphaltenic Crude", "setting": "DMS 1.43 wt. %, 80° C.", "result": 538, "unit": "mPa s"}, {"measurement": "Viscosity of Topped Canadian asphaltenic Crude", "setting": "DMS 2.07 wt. %, 20° C.", "result": 134880, "unit": "mPa s"}, {"measurement": "Viscosity of Topped Canadian asphaltenic Crude", "setting": "DMS 2.07 wt. %, 40° C.", "result": 10523, "unit": "mPa s"}, {"measurement": "Viscosity of Topped Canadian asphaltenic Crude", "setting": "DMS 2.07 wt. %, 60° C.", "result": 1747, "unit": "mPa s"}, {"measurement": "Viscosity of Topped Canadian asphaltenic Crude", "setting": "DMS 2.07 wt. %, 80° C.", "result": 427, "unit": "mPa s"}, {"measurement": "Viscosity of Topped Canadian asphaltenic Crude", "setting": "DMS 4.87 wt. %, 20° C.", "result": 28720, "unit": "mPa s"}, {"measurement": "Viscosity of Topped Canadian asphaltenic Crude", "setting": "DMS 4.87 wt. %, 40° C.", "result": 3235, "unit": "mPa s"}, {"measurement": "Viscosity of Topped Canadian asphaltenic Crude", "setting": "DMS 4.87 wt. %, 60° C.", "result": 985, "unit": "mPa s"}, {"measurement": "Viscosity of Topped Canadian asphaltenic Crude", "setting": "DMS 4.87 wt. %, 80° C.", "result": 328, "unit": "mPa s"}, {"measurement": "Viscosity of Topped Canadian asphaltenic Crude", "setting": "DMS 8.01 wt. %, 20° C.", "result": 5799, "unit": "mPa s"}, {"measurement": "Viscosity of Topped Canadian asphaltenic Crude", "setting": "DMS 8.01 wt. %, 40° C.", "result": 982, "unit": "mPa s"}, {"measurement": "Viscosity of Topped Canadian asphaltenic Crude", "setting": "DMS 8.01 wt. %, 60° C.", "result": 275, "unit": "mPa s"}, {"measurement": "Viscosity of Topped Canadian asphaltenic Crude", "setting": "DMS 8.01 wt. %, 80° C.", "result": 106, "unit": "mPa s"}, {"measurement": "Viscosity of Topped Canadian asphaltenic Crude", "setting": "DMS 9.80 wt. %, 20° C.", "result": 2760, "unit": "mPa s"}, {"measurement": "Viscosity of Topped Canadian asphaltenic Crude", "setting": "DMS 9.80 wt. %, 40° C.", "result": 571, "unit": "mPa s"}, {"measurement": "Viscosity of Topped Canadian asphaltenic Crude", "setting": "DMS 9.80 wt. %, 60° C.", "result": 173, "unit": "mPa s"}, {"measurement": "Viscosity of Topped Canadian asphaltenic Crude", "setting": "DMS 9.80 wt. %, 80° C.", "result": 73, "unit": "mPa s"}, {"measurement": "Viscosity of Topped Canadian asphaltenic Crude", "setting": "DMS 14.81 wt. %, 5° C.", "result": 1794, "unit": "mPa s"}, {"measurement": "Viscosity of Topped Canadian asphaltenic Crude", "setting": "DMS 14.81 wt. %, 10° C.", "result": 1155, "unit": "mPa s"}, {"measurement": "Viscosity of Topped Canadian asphaltenic Crude", "setting": "DMS 14.81 wt. %, 20° C.", "result": 548, "unit": "mPa s"}, {"measurement": "Viscosity of Topped Canadian asphaltenic Crude", "setting": "DMS 14.81 wt. %, 40° C.", "result": 159, "unit": "mPa s"}, {"measurement": "Viscosity of Topped Canadian asphaltenic Crude", "setting": "DMS 14.81 wt. %, 60° C.", "result": 64, "unit": "mPa s"}, {"measurement": "Viscosity of Topped Canadian asphaltenic Crude", "setting": "DMS 14.81 wt. %, 80° C.", "result": 32, "unit": "mPa s"}, {"measurement": "Viscosity of Topped Canadian asphaltenic Crude", "setting": "DMS 19.78 wt. %, 20° C.", "result": 188, "unit": "mPa s"}, {"measurement": "Viscosity of Topped Canadian asphaltenic Crude", "setting": "DMS 19.78 wt. %, 40° C.", "result": 69, "unit": "mPa s"}, {"measurement": "Viscosity of Topped Canadian asphaltenic Crude", "setting": "DMS 19.78 wt. %, 60° C.", "result": 33, "unit": "mPa s"}, {"measurement": "Viscosity of Topped Canadian asphaltenic Crude", "setting": "DMS 19.78 wt. %, 80° C.", "result": 19, "unit": "mPa s"}, {"measurement": "Viscosity of Topped Canadian asphaltenic Crude", "setting": "DMS 29.88 wt. %, 5° C.", "result": 113, "unit": "mPa s"}, {"measurement": "Viscosity of Topped Canadian asphaltenic Crude", "setting": "DMS 29.88 wt. %, 10° C.", "result": 81, "unit": "mPa s"}, {"measurement": "Viscosity of Topped Canadian asphaltenic Crude", "setting": "DMS 29.88 wt. %, 20° C.", "result": 51, "unit": "mPa s"}, {"measurement": "Viscosity of Topped Canadian asphaltenic Crude", "setting": "DMS 29.88 wt. %, 40° C.", "result": 22, "unit": "mPa s"}, {"measurement": "Viscosity of Topped Canadian asphaltenic Crude", "setting": "DMS 29.88 wt. %, 60° C.", "result": 13, "unit": "mPa s"}, {"measurement": "Viscosity of Topped Canadian asphaltenic Crude", "setting": "DMS 29.88 wt. %, 80° C.", "result": 8, "unit": "mPa s"}, {"measurement": "Viscosity of Topped Canadian asphaltenic Crude", "setting": "DMS 39.61 wt. %, 5° C.", "result": 23, "unit": "mPa s"}, {"measurement": "Viscosity of Topped Canadian asphaltenic Crude", "setting": "DMS 39.61 wt. %, 10° C.", "result": 20, "unit": "mPa s"}, {"measurement": "Viscosity of Topped Canadian asphaltenic Crude", "setting": "DMS 39.61 wt. %, 20° C.", "result": 14, "unit": "mPa s"}, {"measurement": "Viscosity of Topped Canadian asphaltenic Crude", "setting": "DMS 39.61 wt. %, 40° C.", "result": 8, "unit": "mPa s"}, {"measurement": "Viscosity of Topped Canadian asphaltenic Crude", "setting": "DMS 39.61 wt. %, 60° C.", "result": 6, "unit": "mPa s"}, {"measurement": "Viscosity of Topped Canadian asphaltenic Crude", "setting": "DMS 39.61 wt. %, 80° C.", "result": 4, "unit": "mPa s"}]}
